US11478442B2, “Pharmaceutical compositions comprising DGLA and use of same” (DS Biopharma Limited, priority 2014, dated 2022)
Like-named read-outs stand apart in the source and are kept apart here.

What was measured:
[1] = test system: spontaneous hypertensive rats; assay: Anti-hypertension efficacy of DGLA and aspirin in spontaneous hypertensive rats with phenylephrine challenge; assay type: in vivo, rat; conditions: for effect on mean systemic arterial pressure (in words): aspirin-fed rats
Experimental: An in vivo investigation of anti-hypertension efficacy following co-administration of DGLA and aspirin in spontaneous hypertensive rats was conducted. This experiment investigated the efficacy of DGLA when co-administered chronically with aspirin to reduce the hypertensive response induced acutely by phenylephrine in spontaneous hypertensive rats. Spontaneously hypertensive adult male rats (250-300 g), bred by Charles River Laboratories, were used for this assay. The animals were identified upon arrival as per CCPA guidelines. The animals were pair-housed by group (low dose+ Aspirin, high dose+ Aspirin or Aspirin alone) for the duration of the oral gavage prior to surgery. All animal care and vivarium maintenance was recorded, with documents kept at the test facility.
The concentrations of DGLA to be tested (50 and 500 mg/kg) as well as the concentration of aspirin (10 mg/kg) were selected by the Sponsor based on information available at the time of design of this study. They were selected to cover a range of concentrations useful for the identification of the mechanism of action of the test article.
All solution preparations were documented on a Solution Contents Form, defining labelling information and all relevant information on reagents: batch number, storage conditions, contents, and preparation/expiry dates.
The test article was formulated using olive oil as the vehicle. This stock solution was then administered by oral gavage once per day for seven consecutive days. A low and a high dose (50 mg/kg and 500 mg/kg) were tested.
A 5 mg/ml stock solution of Aspirin was prepared by dissolving the appropriate amount of aspirin in 100% DMSO which was then diluted in water. The concentration of DMSO was less than 1%. The appropriate volume was administered by oral gavage to each animal once per day for seven consecutive days. The stock solution was stored at room temperature and was considered stable for the duration of the gavage.
The appropriate volume was administered to each animal by an intravenous injection at the end of the experiment on the surgery day. The stock solution was stored at 4° C. and was considered stable for the duration of the experiment.
Male spontaneous hypertensive rats weighing approximately 300 g arrived at the facility at least two days before beginning the oral gavage. Animals were assigned to one of three groups (low dose+ aspirin, high dose+ aspirin, and aspirin), and were pair-housed during the acclimation period. Each group (n=4) received the appropriate compound by oral gavage using a 16G feeding needle. The stock solution was administered once per day for seven consecutive days. On the seventh day of administration, the animals underwent surgery and hypertensive monitoring.
Rats were anesthetized with a 2.5-3.0% isoflurane-O2 mixture in an induction box. When the animals were removed from the induction box, they were connected onto a nose cone to maintain anesthesia during the tracheotomy. The animals were tracheotomised with an endotracheal tube (7 cm length from connector to the tip made with a PE205 tube from BD and a 16G needle) to facilitate spontaneous breathing, stabilize hemodynamics, and to keep the rat under anesthesia with an isoflurane-O2 mixture. Two catheters were inserted: one in the right femoral artery for systemic arterial pressure (SAP) measurement, and one in the right femoral vein for delivery of the hypertensor and positive control. ECG signals were acquired with ECG contacts placed in a Lead-1 configuration on the anaesthetized animal, and a pulse oxymeter was attached to the animal's hind paw to enable continuous monitoring of the general condition of the rat during the surgical. Following baseline measurements, three doses of phenylephrine (3, 10 and 20 μg/kg) were delivered by an IV bolus injection, leaving 5 minutes between doses. […] After the positive control, 10 μg/kg of phenylephrine was administered again.

[2] = in vivo
Experimental: In Part one of the study, plasma PK analysis of Dihomo-Gamma-Linolenic Acid (DGLA) and 15-Hydroxyeicosatrienoic acid (15-HETrE), in fasted subjects alone, was performed for Cohorts one to four up to 312 hours post dose on study Days 1 to 5, 8, 14, and the follow-up visit. In Part two, plasma PK analysis of DGLA was performed for Cohorts five and six up to 168 hours post dose on study Days 1, 2, 3, 5, and 8. Safety assessments were monitored throughout the study.
Analysis of plasma concentrations of DGLA (free and total) and free 15-HETrE were performed in blood samples obtained from the subjects.
Analysis of all plasma and skin blister fluid samples was performed using validated methods. Concentrations of free and total DGLA were measured in plasma and skin blister fluid by liquid chromatography with tandem mass spectrometry (LC/MS/MS); the quantitation range was 100 to 10,000 ng/mL for free DGLA and 5000 to 500,000 ng/mL for total DGLA. Plasma concentrations of free 15-HETrE were measured by LC/MS/MS with a quantitation range of 100 to 10,000 ng/mL.

[3] = Phase one study, food effect: single 1000 mg dose fasted vs fed, plasma pharmacokinetics of free and total DGLA; assay type: in vivo, human; conditions: for Tmax: human, plasma, oral, 1000 mg, read-out: total DGLA tmax, median
Experimental: The effect of food on the PK of an orally administered single dose of DS107G capsule in healthy subjects.
Subjects were randomly assigned in a 3:1 ratio of DG107G to placebo by block randomization. Single dose part one of the study comprised three cohorts of eight subjects each, with the addition of Cohort four based on evaluation of the safety data of Cohort three by the Safety Monitoring Committee (SMC). A single oral dose of DS107G or matching placebo was administered to fasted subjects in Cohorts one to three (500, 1000, and 2000 mg, respectively) in parallel; subjects in Cohort four were administered a dose of 4000 mg following completion of Cohort three. Subjects in Cohort two received 1000 mg or matching placebo in the fed state at 14 days after the first dose.
Food effect was evaluated in Cohort two at least 14 days after the first dose at which time a second single dose was administered. Subjects were administered a 1000-mg dose of study drug with 240 mL of water after a 10-hour fasting period and 30 minutes after starting consumption of a meal. Subjects then refrained from food intake for at least 4 hours after dosing. Food consumption was standardized for at least 12 hours after dosing using a standardized high-fat meal (800 to 1000 kcal with 500 to 600 kcal from fat and 250 kcal from carbohydrates). A typical standard test meal consisted of two eggs fried in butter, two strips of bacon, two slices of toast with butter, 120 mL of hash brown potatoes, and 240 mL of whole milk.
Subjects in Cohort two undergoing evaluation of the food effect on oral 1000 mg DGLA capsules were restricted from food consumption for at least 4 hours after dosing. Food consumption was standardized for at least 12 hours post dose using a standardized high-fat meal.

[4] = Phase one study, multiple dose (28 days): plasma pharmacokinetics of free DGLA incl. steady state; assay type: in vivo, human
Experimental: (§1) A single-center, double-blind, randomized, placebo-controlled, two part Phase one study was performed in healthy male and female subjects aged 18 to 45 years inclusive. The primary objective of this study was to assess the safety and plasma pharmacokinetics (PK) of orally administered single doses and orally administered multiple doses of DS107G capsules (once daily for 28 days) in healthy subjects.
(§2) Multiple dose part two of the study comprised two cohorts (Cohorts five and six) of eight subjects each, who were administered multiple doses of study drug in the fasted state for 28 days. Subjects in Cohorts five and six received DS107G 2000 or 4000 mg, respectively, or matching placebo once daily for 28 days. Cohort six was started after Cohort five safety data were evaluated by the SMC. No interim analysis was planned.
(§3) Safety assessments were monitored throughout the study.
(§4) In Part two of the study (Cohorts five and six), subjects were administered study drug (500-mg DS107G capsules or matching placebo capsules) once daily in the fasted state for 28 days. Subjects in Cohort five received study drug first and, if they tolerated the 2000-mg daily dose for the first 14 days, subjects in Cohort six were started on the 4000-mg daily dose for 28 days.
(§5) PK parameter was computed after correcting the dosed DGLA concentrations with baseline DGLA concentrations.

[5] = Phase one study, multiple dose: free and total DGLA in skin blister fluid; assay type: in vivo, human
Source text: The PK of DGLA in human skin following multiple doses of DS107G capsule given once daily for 28 days to healthy subjects.

[6] = Phase one study, multiple dose (28 days): plasma pharmacokinetics of total DGLA incl. steady state; assay type: in vivo, human; conditions: for half-life: 2000 mg, 2000 mg dose cohort, read-out: Median total DGLA elimination t½ (converted); for Peak Trough Fluctuation (PTF), mean (Table 24, total DGLA): steady-state, Day 28 (0-24 hours)
Experimental: as §1, §2, §3, §4, §5

[7] = DGLA 50 mg/kg gavage 7 days, before intravenous phenylephrine
[8] = concentrations from Days 1, 8, 14 and 28

CC(=O)Oc1ccccc1C(=O)O [Aspirin, reference compound]
Mean Arterial Pressure, Average ([1]; Aspirin 10 mg/kg/day gavage 7 days, Baseline): 136.8 mm Hg

CCCCC[C@H](O)/C=C/C=C\C/C=C\CCCCCCC(=O)O [Batch 15-HETrE, 15-Hydroxyeicosatrienoic acid]
plasma free 15-HETrE concentration [2]: < 100 ng/m L

COc1ccccc1OCCNCC(O)COc1cccc2[nH]c3ccccc3c12 (stereo not shown) [Carvedilol, reference compound]
effect on mean systemic arterial pressure (in words) ([1]; carvedilol 0.1 mg/kg iv after phenylephrine): significant decrease
effect on blood pressure (in words) ([1]; carvedilol 0.1 mg/kg iv, DGLA + aspirin-fed animals): significant decrease in blood pressure

CCCCC/C=C\C/C=C\C/C=C\CCCCCCC(=O)O [DGLA, Dihomo gamma linolenic acid]
free DGLA Cmax occurred sooner (median) under fasted than fed conditions [3]: 1 h
Tmax ([3]; fasted): 8 h
Tmax ([3]; fed): 15 h
free DGLA mean accumulation ratio (AR) for AUC ([4]; 2000 mg daily): ~3.3
free DGLA mean accumulation ratio (AR) for Cmax ([4]; 2000 mg daily): ~2.8
free DGLA mean accumulation ratio (AR) for AUC ([4]; 4000 mg daily): ~1.6
free DGLA mean accumulation ratio (AR) for Cmax ([4]; 4000 mg daily): ~1.4
day by which plasma concentrations reached steady-state ([4]; 2000 and 4000 mg daily, free and total DGLA): ~14 days
time after dosing at which mean concentrations of free DGLA peaked ([4]; Days 1 and 28, 2000 and 4000 mg daily): about 4 hours
Diastol arterial pressure [1, 7]: 75 mm Hg
Systol arterial pressure [1, 7]: 120 mm Hg
Diastol arterial pressure ([1]; DGLA 500 mg/kg gavage 7 days, before intravenous phenylephrine): 80 mm Hg
effect on arterial pressure in spontaneously hypertensive rats (in words) ([1]; DGLA alone, 50 or 500 mg/kg gavage 7 days): successfully decreases the arterial pressure
Mean total DGLA concentrations in skin blister fluid, Day 28 vs Day 1 ([5]; 2000 mg daily): about 2.5 fold
Mean total DGLA concentrations in skin blister fluid, Day 28 vs Day 1 ([5]; 4000 mg daily): ~3 fold
change of mean free DGLA concentrations in skin blister fluid with a doubling in dose (in words) [5, 8]: approximately doubled
increase of mean total DGLA concentrations in skin blister fluid with a doubling in dose [5, 8]: about 1.4 fold
half-life ([6]; both sexes, human, plasma, oral, Day 1, assessed over 24 hours): 34.4 h
half-life ([6]; both sexes, human, plasma, oral, Day 28, assessed over 24 hours): 44 h
half-life ([6]; both sexes, human, plasma, oral, Day 28, evaluated over 0 to 168 hours): 62.6 h
Tmax ([6]; both sexes, human, plasma, oral, with multiple doses, both dose cohorts, read-out: total DGLA Median T (tmax)): 8 to 10 h
Peak Trough Fluctuation (PTF), mean (Table 24, total DGLA) ([6]; first of both dose cohorts (2000 mg)): 62.5%
Peak Trough Fluctuation (PTF), mean (Table 24, total DGLA) ([6]; second of both dose cohorts (4000 mg)): 44.9%

CNC[C@H](O)c1cccc(O)c1 [phenylephrine, reference compound]
effect on mean systemic arterial pressure (in words) ([1]; phenylephrine 3, 10, 20 μg/kg iv): increased mean systemic arterial pressure with increasing doses
